This is an account of results in paper PMC8746632, “Design and Synthesis of New Thiophene/Thieno[2,3-d]pyrimidines along with Their Cytotoxic Biological Evaluation as Tyrosine Kinase Inhibitors in Addition to Their Apoptotic and Autophagic Induction” (Molecules, 2021).

This experiment addresses T1, FLT3 kinase (Fms-like tyrosine kinase 3) (Homo sapiens, UniProt P36888).
T1 sequence (P36888 27-993): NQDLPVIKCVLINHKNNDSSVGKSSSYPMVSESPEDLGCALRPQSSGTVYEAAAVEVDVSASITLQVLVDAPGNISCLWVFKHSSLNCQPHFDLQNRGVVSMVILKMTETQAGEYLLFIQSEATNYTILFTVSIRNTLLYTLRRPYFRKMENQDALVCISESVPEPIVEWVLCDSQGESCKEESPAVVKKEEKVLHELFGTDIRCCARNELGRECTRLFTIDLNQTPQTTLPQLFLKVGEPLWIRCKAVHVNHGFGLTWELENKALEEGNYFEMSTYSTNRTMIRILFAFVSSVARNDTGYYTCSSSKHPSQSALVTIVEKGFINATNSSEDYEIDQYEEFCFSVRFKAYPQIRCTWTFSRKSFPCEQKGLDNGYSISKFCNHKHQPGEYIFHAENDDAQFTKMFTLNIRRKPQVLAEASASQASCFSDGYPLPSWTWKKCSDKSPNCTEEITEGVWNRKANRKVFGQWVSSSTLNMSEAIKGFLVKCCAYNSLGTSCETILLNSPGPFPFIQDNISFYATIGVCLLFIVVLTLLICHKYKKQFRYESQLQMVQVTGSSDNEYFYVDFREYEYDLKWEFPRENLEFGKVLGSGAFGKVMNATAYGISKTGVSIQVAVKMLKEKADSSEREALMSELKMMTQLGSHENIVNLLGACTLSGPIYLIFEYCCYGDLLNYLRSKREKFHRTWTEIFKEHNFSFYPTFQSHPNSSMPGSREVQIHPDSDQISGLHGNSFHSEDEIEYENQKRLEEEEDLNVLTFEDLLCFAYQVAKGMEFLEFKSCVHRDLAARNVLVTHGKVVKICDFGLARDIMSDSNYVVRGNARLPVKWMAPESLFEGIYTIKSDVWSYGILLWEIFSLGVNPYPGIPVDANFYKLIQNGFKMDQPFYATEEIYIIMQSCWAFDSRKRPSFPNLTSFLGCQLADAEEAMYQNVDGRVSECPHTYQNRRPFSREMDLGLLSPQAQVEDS
Description: FLT3 Kinase Assay Kit, ADP production, luminescence, dose response. The format is biochemical.
As to `O=C(CCl)NNc1ncnc2sc3c(c12)CCCC3` [compound 5, 2-Chloro-N′-(5,6,7,8,tetrahydrobenzo[4,5]thieno[2,3-d]pyrimidin-4-yl)acetohydrazide], it took 32.4 ± 5.5 µM to reach half-maximal inhibition (IC50).

Compound `CCOC(=O)c1c(NC(=O)CCl)sc2c1CCCC2` [compound 10, 10] registered an IC50 of 40 ± 5.5 µM.

The compound `CC1=CC(=O)N(Nc2ncnc3sc4c(c23)CCCC4)C1=O` [compound 8, 3-Methyl-1-(5,6,7,8-tetrahydrobenzo[4,5]thieno[2,3-d]pyrimidin-4-ylamino)-1H-pyrrole-2,5-dione] gave an IC50 of 40.5 ± 6.3 µM.

The compound `CC(C)(C)c1cc(Nc2ncnc3sc4c(c23)CCCC4)on1` [9b, N-(3-tert-butylisoxazol-5-yl)-5,6,7,8-tetrahydrobenzo[4,5]thieno[2,3-d]pyrimidin-4-amine] returned an IC50 of 39.6 ± 4.6 µM.

In general, IC50 refers to the midpoint of a concentration-inhibition curve.
